PubChem BioAssay (NCI)
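48-hour exposure; five concentrations; linearly interpolated endpoints. Here, GI50 denotes the concentration required for 50% inhibition of growth. Definition used: TGI = concentration required for complete inhibition of growth.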

How the values were obtained:
Assay in all cases: DTP human tumour cell line panel, 48 h
HS 578T breast = system: HS 578T breast
MDA-MB-231 breast = system: MDA-MB-231 breast
UACC-257 melanoma = system: UACC-257 melanoma
SF-539 CNS = system: SF-539 CNS
HOP-92 NSCLC = system: HOP-92 NSCLC
HT29 colon = system: HT29 colon
M14 melanoma = system: M14 melanoma
MCF7 breast = system: MCF7 breast
RPMI-8226 leukemia = system: RPMI-8226 leukemia
TK-10 renal = system: TK-10 renal

SMILES	GI50 (HS 578T breast)	TGI (HS 578T breast)	GI50 (MDA-MB-231 breast)	TGI (MDA-MB-231 breast)	GI50 (UACC-257 melanoma)	TGI (UACC-257 melanoma)	GI50 (SF-539 CNS)	TGI (SF-539 CNS)	GI50 (HOP-92 NSCLC)	TGI (HOP-92 NSCLC)	GI50 (HT29 colon)	TGI (HT29 colon)	GI50 (M14 melanoma)	TGI (M14 melanoma)	GI50 (MCF7 breast)	TGI (MCF7 breast)	GI50 (RPMI-8226 leukemia)	TGI (RPMI-8226 leukemia)	GI50 (TK-10 renal)	TGI (TK-10 renal)
CC1(C)CCC[C@]2(C)c3ccccc3C(=O)CC12 (some centres undefined)	23.2 µM	95.3 µM	30.8 µM	> 100 µM	32.5 µM	> 100 µM	27.1 µM	75.7 µM	60.8 µM	> 100 µM	43 µM	> 100 µM	38.6 µM	> 100 µM	38.2 µM	> 100 µM	29.7 µM	> 100 µM	69 µM	> 100 µM
CC1SC(c2ccc(Cl)cc2Cl)N(NC(=O)C(O)c2ccccc2)C1=O (centres undefined)	> 100 µM	> 100 µM	46.2 µM	> 100 µM	61.7 µM	> 100 µM	> 100 µM	> 100 µM	35.9 µM	> 100 µM	41.9 µM	> 100 µM	42.9 µM	> 100 µM	57 µM	> 100 µM	38.9 µM	> 100 µM	61.2 µM	> 100 µM
O=P(O)(O)OCC1OC(n2cnc3c(NCc4ccccc4)ncnc32)C(O)C1O (centres undefined)	1.02 µM	6.1 µM	0.35 µM	1.35 µM	> 75.2 µM	> 100 µM	1.55 µM	4.73 µM	2.14 µM	> 22.5 µM	2.27 µM	> 36 µM	2.68 µM	> 100 µM	1.31 µM	19.3 µM	3.97 µM	> 52.1 µM	2.15 µM	30.2 µM
O=C(O)c1ccc(SSc2ccc(C(=O)O)cn2)nc1	–	> 100 µM	–	> 100 µM	–	> 100 µM	–	> 100 µM	–	> 100 µM	–	> 100 µM	–	> 100 µM	–	> 100 µM	–	> 100 µM	–	> 100 µM
CC1=NOC(=O)/C1=C/c1ccc2c(c1)OCO2	–	> 100 µM	–	53.9 µM	–	> 100 µM	–	64.9 µM	–	> 100 µM	–	57.3 µM	–	> 100 µM	–	> 100 µM	–	55.2 µM	–	> 100 µM
CCn1c2ccccc2c2cc(C(=O)c3ccc(C)c4ccccc34)ccc21	0.756 µM	> 100 µM	0.824 µM	> 100 µM	39.3 µM	> 100 µM	0.255 µM	0.802 µM	0.28 µM	6.87 µM	0.263 µM	0.729 µM	0.276 µM	1.42 µM	0.311 µM	> 100 µM	0.389 µM	> 100 µM	0.658 µM	> 100 µM
C[C@]12C[C@H](O)[C@H]3[C@@H](CCC4=CC(=O)CC[C@@]43C)[C@@H]1CC[C@@H]2c1csc(-c2ccccc2)n1	–	> 80 µM	–	> 77.8 µM	–	> 100 µM	–	> 100 µM	–	> 100 µM	–	> 100 µM	–	> 100 µM	–	> 100 µM	–	> 100 µM	–	> 100 µM
COc1c(N2CCN(CN3C(=O)C(=Nc4ccc(S(=O)(=O)Nc5ncccn5)cc4)c4cc(Cl)ccc43)C(C)C2)c(F)cc2c(=O)c(C(=O)O)cn(C3CC3)c12 (centres undefined)	11.9 µM	42.8 µM	8.28 µM	31 µM	6.77 µM	17.7 µM	15.4 µM	40.9 µM	19.2 µM	> 50 µM	7.76 µM	> 50 µM	13.8 µM	44.7 µM	11.9 µM	44.4 µM	16.8 µM	> 50 µM	13.3 µM	35.2 µM
C=C1CCC2C3(C)COC(c4ccccc4Cl)OC3CCC2(C)C1/C=C/C1=CCOC1=O (centres undefined)	> 100 µM	> 100 µM	> 100 µM	> 100 µM	9.09 µM	> 100 µM	24 µM	> 100 µM	1.6 µM	> 100 µM	5.43 µM	> 100 µM	89.6 µM	> 100 µM	4.38 µM	> 100 µM	1.16 µM	9.97 µM	19 µM	> 100 µM
N#Cc1cccc(C2C3=C(COC3=O)N(CCO)c3cc4c(cc32)OCO4)c1 (centres undefined)	1.3 µM	11.1 µM	2.42 µM	> 50 µM	> 50 µM	> 50 µM	1.53 µM	8.52 µM	2.66 µM	> 50 µM	1.49 µM	> 50 µM	0.806 µM	> 50 µM	0.942 µM	> 50 µM	1.79 µM	> 50 µM	15.4 µM	> 50 µM
O=C[C@@H](CO)O[C@H](C=O)n1cnc2c(=O)[nH]cnc21	–	2390 µM	–	1010 µM	–	1670 µM	–	2230 µM	–	865 µM	–	1910 µM	–	1860 µM	–	409 µM	–	633 µM	–	1830 µM
COc1cc(CNc2oc(-c3ccccc3)c(-c3ccccc3)c2C#N)cc(CN2CCN(C)CC2)c1O	2.26 µM	6.61 µM	2.01 µM	3.93 µM	1.84 µM	3.71 µM	1.72 µM	3.16 µM	2.34 µM	10.2 µM	1.92 µM	3.99 µM	1.78 µM	3.65 µM	1.46 µM	3.07 µM	2.23 µM	6.33 µM	1.62 µM	3.34 µM
Nc1ccc(/C=C/c2ccc3cccnc3c2)cc1	–	> 100 µM	–	> 100 µM	–	> 100 µM	–	> 100 µM	–	> 100 µM	–	> 100 µM	–	> 100 µM	–	> 100 µM	–	> 100 µM	–	> 100 µM
CC/C(=C/c1ccc(OC)cc1OC)[N+](=O)[O-]	7.76 µM	63.4 µM	3.08 µM	8.96 µM	2.31 µM	6.29 µM	2.27 µM	4.73 µM	4.27 µM	14.3 µM	3.37 µM	11.1 µM	2.44 µM	8.53 µM	0.852 µM	3.92 µM	2.31 µM	7.19 µM	2.62 µM	6.5 µM
N#Cc1cccc(N2C(=O)C3C4C=CC(C3C2=O)C2C(=O)N(c3cccc(C#N)c3)C(=O)C42)c1 (centres undefined)	–	> 95.5 µM	–	> 100 µM	–	> 63.1 µM	–	61.4 µM	–	31.6 µM	–	> 63.1 µM	–	> 63.1 µM	–	> 100 µM	–	> 56.2 µM	–	50 µM
COc1ccc(-c2cc(=O)c3c(O)c(OC)c(OC)c(OC)c3o2)cc1	–	> 93.7 µM	–	> 72 µM	–	> 100 µM	–	> 100 µM	–	> 82.8 µM	–	> 100 µM	–	> 100 µM	–	> 100 µM	–	> 100 µM	–	> 100 µM
Nc1cccc2c1C(=O)c1cccc(NC(=O)c3ccccc3)c1C2=O	0.412 µM	> 53.1 µM	1.06 µM	> 100 µM	0.614 µM	64.8 µM	0.292 µM	13 µM	0.34 µM	6.72 µM	0.291 µM	2.67 µM	0.4 µM	36.4 µM	0.258 µM	21.3 µM	0.462 µM	> 100 µM	1.13 µM	8.13 µM
CCOC(=O)CN1C(=O)c2cc([N+](=O)[O-])cc3cc([N+](=O)[O-])cc(c23)C1=O	–	> 100 µM	–	> 100 µM	–	> 100 µM	–	84.3 µM	–	> 100 µM	–	> 100 µM	–	> 100 µM	–	> 100 µM	–	> 100 µM	–	> 100 µM
Cc1cc(O)c(-c2ccc([C@@H](C)CN(C)C)cc2)c2c1[nH]c(=O)c1sccc12	0.207 µM	20.8 µM	0.608 µM	28.6 µM	1.76 µM	6.86 µM	0.219 µM	1.97 µM	0.848 µM	5.35 µM	2.76 µM	7.81 µM	0.705 µM	4.34 µM	0.103 µM	3.14 µM	0.427 µM	2.74 µM	0.647 µM	5.87 µM
O=C(/C=C/C12c3ccccc3C(c3ccccc31)C1C(=O)NC(=O)C12)c1ccccc1 (centres undefined)	2.19 µM	7.68 µM	2.96 µM	13.1 µM	1.61 µM	3.48 µM	1.63 µM	3.02 µM	1.41 µM	3.52 µM	3.25 µM	11.9 µM	1.78 µM	3.68 µM	1.45 µM	7.6 µM	1.51 µM	4.1 µM	2.79 µM	6.34 µM
Cc1cccc2c1[nH]c(=O)c1c3ccccc3cn21	21.8 µM	64.4 µM	2.42 µM	17.5 µM	16.6 µM	94.4 µM	3.85 µM	15.8 µM	3.97 µM	32.2 µM	2.16 µM	13.1 µM	12.4 µM	30.9 µM	–	12.5 µM	2 µM	7.15 µM	26.8 µM	86.2 µM
CC(C)c1ccc(NC(=O)Cc2ccc(Nc3ncnc4cc(-c5cnn(CCN(C)C)c5)ccc34)cc2)cc1	0.795 µM	4.66 µM	1.44 µM	3.14 µM	> 10 µM	> 10 µM	0.571 µM	2.39 µM	3.44 µM	> 10 µM	1.4 µM	3.49 µM	1.28 µM	2.97 µM	1.06 µM	3.04 µM	1.95 µM	4.75 µM	1.72 µM	3.79 µM
CC[C@H](C)[C@H](NC(=O)c1cccn1C)C(=O)N(C)[C@H](C[C@@H](OC(C)=O)c1nc(C(=O)N[C@@H](Cc2ccccc2)C[C@H](C)C(=O)OC)cs1)C(C)C	0.226 µM	> 31.2 µM	0.364 µM	5.75 µM	18.2 µM	> 33.3 µM	0.203 µM	1.22 µM	0.13 µM	5.08 µM	0.205 µM	> 29.5 µM	0.131 µM	0.832 µM	0.0807 µM	> 33.3 µM	0.129 µM	> 18.8 µM	2.61 µM	> 33.3 µM
COc1cc(NCCCCCN=C(N)NC(N)=NC(C)C)c2ncccc2c1	2.45 µM	12.7 µM	0.531 µM	4.47 µM	1.04 µM	4.81 µM	2.3 µM	12.8 µM	1.75 µM	9.82 µM	4.44 µM	> 42.3 µM	6.12 µM	20.1 µM	0.0313 µM	0.16 µM	1.26 µM	20 µM	6.14 µM	19.9 µM
CC(C)(C)OC(=O)Nc1ccc2c(c1)C(NC(=O)Nc1cccc(C#N)c1)CC(C)(C)O2 (centres undefined)	8.79 µM	> 100 µM	4.17 µM	> 50.7 µM	1.07 µM	6.93 µM	5.19 µM	44.1 µM	4.06 µM	> 28.3 µM	6.71 µM	> 100 µM	3.73 µM	40.5 µM	1.92 µM	30.7 µM	2.63 µM	> 81.9 µM	6.14 µM	> 100 µM
COc1cc2c3c(n(CCCNCCCN)c(=O)c2cc1OC)-c1cc2c(cc1C3=O)OCO2	6.28 µM	42.8 µM	2.93 µM	12.6 µM	7.31 µM	23 µM	1.17 µM	10.6 µM	1.36 µM	11.2 µM	1.7 µM	13.6 µM	4.65 µM	16.7 µM	0.504 µM	5.08 µM	2.44 µM	11.8 µM	9.74 µM	27.9 µM
C=C1C(=O)O[C@H]2C[C@@H]1C(=O)CC(C)CCCC(C)=CCC[C@@]2(C)O (some centres undefined)	–	> 25 µM	–	> 25 µM	–	> 25 µM	–	> 25 µM	–	> 25 µM	–	> 25 µM	–	> 25 µM	–	> 25 µM	–	> 25 µM	–	> 25 µM
N#CC1=C(N)NC(=O)NC12Nc1ccccc1N2	> 100 µM	> 100 µM	> 100 µM	> 100 µM	> 100 µM	> 100 µM	> 100 µM	> 100 µM	31.3 µM	> 100 µM	> 100 µM	> 100 µM	> 100 µM	> 100 µM	> 100 µM	> 100 µM	> 100 µM	> 100 µM	> 100 µM	> 100 µM
